Biological target: T1, MDM2 protein (Mus musculus, UniProt P23804)
T1 construct: from tissue; host or cells: liver of C57BL/6J wild-type mice
Assay: Western blot of MDM2 protein in liver of mice given the compound
Assay type: in vivo
Settings: C57BL/6J mice, 48 hours after administration
Protocol: In Example 4, degradation (knockdown) of the endogenous wild-type p53 protein and MDM2 protein in mouse individuals in which TIBC-CANDDY_MLN had been administered was evaluated by Western blot analysis.
TIBC-CANDDY_MLN was dissolved in DMSO immediately before administration, and then dissolved in corn oil (Code No. 25606-55, Nacalai Tesque) so that the concentration of DMSO was 10 vol %, and then a dose of 50 mg/kg body weight or 100 mg/kg body weight was administered intraperitoneally to C57BL/6J wild-type mice (7 to 8 weeks old, male) (CLEA Japan, Inc.) (n=3). As a control, an injection carrier (corn oil containing 10 vol % DMSO) was used. The mice were kept under an environment of ad libitum access to food and water. […]
The frozen tissue (0.04 g) was triturated, and then 980 μL of 1×TKM tissue lysis buffer (50 mM triethanolamine (pH 7.8), 50 mM KCl, 5 mM MgCl2, 0.25 M sucrose, 1 mM PMSF, protein inhibitors cocktail-EDTA free (Code No. 03969-21, Nacalai Tesque), 1 mM DTT, Recombinant RNase inhibitor 5 μl/mL (40 U/μl, Cat No. 2313A, Lot No. K8402DA, TAKARA Bio)) was added, and dissolved by rotation for 15 minutes (1 rpm, 25° C.). […] The concentration of proteins in the tissue extract was quantified with a spectrophotometer with the tissue extract that had been diluted 20 times using DEPC-treated water. […]

T1 sequence (P23804 whole entry): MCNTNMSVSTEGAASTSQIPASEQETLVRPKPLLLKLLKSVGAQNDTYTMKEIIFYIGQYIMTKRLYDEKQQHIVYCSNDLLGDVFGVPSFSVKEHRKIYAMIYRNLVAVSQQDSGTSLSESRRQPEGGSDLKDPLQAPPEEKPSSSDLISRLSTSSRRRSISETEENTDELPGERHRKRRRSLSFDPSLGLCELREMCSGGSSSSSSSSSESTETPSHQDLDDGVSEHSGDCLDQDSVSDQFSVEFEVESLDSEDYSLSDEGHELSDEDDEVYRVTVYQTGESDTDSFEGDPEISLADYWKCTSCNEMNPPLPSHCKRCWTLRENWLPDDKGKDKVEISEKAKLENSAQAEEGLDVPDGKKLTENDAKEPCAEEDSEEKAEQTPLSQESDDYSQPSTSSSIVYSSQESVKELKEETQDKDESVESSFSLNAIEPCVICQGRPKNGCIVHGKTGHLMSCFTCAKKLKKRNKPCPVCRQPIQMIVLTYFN

**Q.** Which results are given for CC(C)C[C@H](NC(=O)CNC(=O)c1cc(Cl)ccc1Cl)C(=O)NCCCCCCC(=O)Nc1ccc(C(=O)/C=C/c2ccc(I)cc2)cc1 [TIBC-CANDDY_MLN]?
**A.** amount of MDM2 protein in the liver (50 mg/kg body weight intraperitoneally): reduced; amount of MDM2 protein in the liver (100 mg/kg body weight intraperitoneally): reduced

From patent US11007269B2, “P53 degradation inducing molecule and pharmaceutical composition” (Tokyo University of Science Foundation, priority 2016, dated 2021)
